# From patent US20240092744A1, “TRICYCLIC COMPOUND, AND PREPARATION METHOD THEREFOR AND MEDICAL USE THEREOF” (THE NATIONAL INSTITUTES OF PHARMACEUTICAL R&D CO., LTD., priority 2020, published 2024)
# Assay: Determination of aldehyde capture rate (nonenal as model aldehyde, HPLC quantification)
# Conditions: for Aldehyde consumption (100%): 0.05 mM compound, 0.025 mM nonenal, room temperature; for Capture rate (slope of the capture curve per unit time): higher absolute value of the slope = higher capture rate
# Experimental: In the aldehyde capture test disclosed in the present invention, the stable lipid metabolite, nonenal, was used as the model aldehyde to react with the compound of the Example. The specific protocol was as follows.
# 0.05 mM of the compounds of the Examples of the present invention were precisely weighed respectively and dissolved in 1.2 mL of a mixed solution (v/v=1:1) of triolein (Aladdin, G105172-5g) and linoleic acid (Aladdin, L100442-25g), respectively. 2.5 mL of PBS (Solarbio, P1020) solution containing 20% Captisol® (Aladdin, Cl25030-25 g) was added, and the solution was stirred at room temperature overnight. After the example compound was completely dissolved, 0.025 mM nonenal (Sigma, 255653-5G) was added, and the solution was stirred vigorously at room temperature. […] The solution was mixed vigorously by vortex for 2 minutes, and centrifuged at a low speed of 1000 r/min for 3 minutes. The supernatant was transferred to an injection vial. The nonenal in the reaction mixture was analyzed quantitatively by high performance liquid chromatography. The adduct resulted from the example compound of the present invention and nonenal was analyzed qualitatively by high performance liquid chromatography-mass spectrometry.
# Liquid Chromatograph: Waters I Class;
# Column: ACQUITY UPLC HSS T3 1.8 μm;
# Column temperature: 40° C.;
# Liquid chromatography condition: mobile phase A: acetonitrile containing 0.1% formic acid; B: water containing 0.1% formic acid;
# Injection volume: 0.5 mL.
# Gradient of the mobile phases: […]
# In the developed detection method, the retention time of the model aldehyde nonenal was 2.42 minutes. • Mass spectrometry conditions: • Mass spectrometer: Waters TQ-S micro • Ion source: ESI^+ • Capillary voltage: 0.5 kV • Cone voltage: 10V • Source temperature: 150° C. • Degassing temperature: 500° C., degassing flow: 1000 L/Hr • SIM mode • m/z: 225.24 [(mExample 1−OH)+H]^+, 365.42 [madduct 1+H]^+
# The time-varying diagram of the capture reaction of the compounds of the examples of the present invention to nonenal is shown in FIG. 1.
SMILES,Aldehyde consumption (100%) (135 minutes),Capture rate (slope of the capture curve per unit time) (135 minutes),Aldehyde consumption (100%) (180 minutes),Capture rate (slope of the capture curve per unit time) (180 minutes)
"CC(C)(O)c1cc2c(cc1N)Oc1ncccc1O2 [Example 15, 2-(8-Aminobenzo[5,6][1,4]dioxino[2,3-b]pyridin-7-yl)propan-2-ol]",23.50%,−0.15,30.00%,−0.17
"CC(C)(O)c1cc2c(cc1N)C(C)(C)c1ccccc1-2 [Example 14, 2-(2-Amino-9,9-dimethyl-9H-fluoren-3-yl)propan-2-ol]",36.30%,−0.19,44.51%,−0.28
"CC(C)(O)c1cc2c(cc1N)N(Cc1ccccc1)c1ccccc1O2 [Example 27, 2-(2-Amino-10-benzyl-10H-phenoxazin-3-yl)propan-2-ol]",14.37%,−0.11,17.87%,−0.10
"CC(C)(O)c1nc2c(cc1N)oc1ccccc12 [Example 10, 2-(3-Aminobenzofuro[3,2-b]pyridin-2-yl)propan-2-ol]",9.15%,−0.08,9.48%,−0.06
"COC1c2ccccc2-c2cc(C(C)(C)O)c(N)cc21 (stereo not drawn) [Example 28, 2-(2-Amino-9-methoxy-9H-fluoren-3-yl)propan-2-ol]",3.77%,−0.02,4.37%,−0.03
"CN1c2ccccc2Oc2cc(N)c(C(C)(C)O)cc21 [Example 6, 2-(3-Amino-10-methyl-10H-phenoxazin-2-yl)propan-2-ol]",5.40%,−0.08,11.94%,−0.07
"CC(C)(O)c1cc2oc3ccccc3c2cc1N [Example 8, 2-(2-Aminodibenzo[b,d]furan-3-yl)propan-2-ol]",8.30%,−0.22,17.80%,−0.07
"Cn1c2ccc(Cl)cc2c2cc(N)c(C(C)(C)O)nc21 [Example 13, 2-(3-Amino-6-chloro-9-methyl-9H-pyrido[2,3-b]indol-2-yl)propan-2-ol]",6.03%,−0.12,14.83%,−0.08
"Cn1c2ccccc2c2nc(C(C)(C)O)c(N)cc21 [Example 11, 2-(3-Amino-5-methyl-5H-pyrido[3,2-b]indol-2-yl)propan-2-ol]",7.71%,−0.06,12.33%,−0.08
"CC(C)(C)OC(=O)N1c2ccccc2Oc2cc(C(C)(C)O)c(N)cc21 [Example 29, tert-Butyl 2-amino-3-(2-hydroxypropan-2-yl)-10H-phenoxazine-10-carboxylate]",6.52%,−0.04,6.53%,−0.04
"CC(C)(O)c1cc2c(cc1N)Oc1nccnc1O2 [Example 23, 2-(8-Aminobenzo[5,6][1,4]dioxino[2,3-b]pyrazin-7-yl)propan-2-ol]",16.24%,−0.12,17.89%,−0.11
"CN1c2ccccc2Oc2cc(C(C)(C)O)c(N)cc21 [Example 5, 2-(2-Amino-10-methyl-10H-phenoxazin-3-yl)propan-2-ol]",15.06%,−0.14,19.05%,−0.10
CC(C)(O)c1cc2c(cc1N)Oc1ccc(Cl)cc1O2 [Example 26],2.02%,−0.02,5.34%,−0.03
"CC(C)(O)c1nc2c(cc1N)Oc1ccccc1O2 [Example 9, 2-(3-Aminobenzo[5,6][1,4]dioxino[2,3-b]pyridin-2-yl)propan-2-ol]",0.10%,−0.01,0.10%,−0.04
"CC(C)(O)c1nc2oc3ccccc3c2cc1N [Example 1, 2-(3-Aminobenzofuro[2,3-b]pyridin-2-yl)propan-2-ol]",24.57%,−0.13,34.69%,−0.14
CC(C)(O)c1cc2c(cc1N)Oc1ccc(F)cc1O2 [Example 21],6.92%,−0.05,10.06%,−0.05
CC(C)(O)c1cc2c(cc1N)Oc1cc(F)ccc1O2 [Example 20],23.91%,−0.18,25.45%,−0.14
"Cn1c2ccccc2c2cc(N)c(C(C)(C)O)cc21 [Example 3, 2-(3-Amino-9-methyl-9H-carbazol-2-yl)propan-2-ol]",0.11%,−0.01,1.38%,−0.02
"Cn1c2cc(Cl)ccc2c2cc(N)c(C(C)(C)O)nc21 [Example 12, 2-(3-Amino-7-chloro-9-methyl-9H-pyrido[2,3-b]indol-2-yl)propan-2-ol]",17.18%,−0.24,30.31%,−0.16
CC(C)(O)c1cc2c(cc1N)Oc1cc(Cl)ccc1O2 [Example 25],4.87%,−0.03,4.88%,−0.03
"CC(C)(O)c1cc2c(cc1N)Oc1cccnc1O2 [Example 19, 2-(7-Aminobenzo[5,6][1,4]dioxino[2,3-b]pyridin-8-yl)propan-2-ol]",19.40%,−0.14,36.90%,−0.25
